Measured values reported in ChEMBL document CHEMBL3351687, “Crystallographic and receptor binding characterization of Plasmodium falciparum macrophage migration inhibitory factor complexed to two potent inhibitors” (J Med Chem, 2014).
Activity calls are given as the source filed them. No cut-off for these calls is given here.

Experiments:
[1] = tested on: Plasmodium falciparum; assay: Inhibition of purified full-length biotinylated-Plasmodium falciparum macrophage migration inhibitory factor binding to human sCD74 at 2.5 uM after 45 mins
[2] = biological target: T1, Macrophage migration inhibitory factor (Homo sapiens) (UniProt P14174); assay: Inhibition of recombinant human macrophage migration inhibitory factor binding to human ectodomain CD74 at 0.1 to 2.5 uM
T1 sequence (whole entry): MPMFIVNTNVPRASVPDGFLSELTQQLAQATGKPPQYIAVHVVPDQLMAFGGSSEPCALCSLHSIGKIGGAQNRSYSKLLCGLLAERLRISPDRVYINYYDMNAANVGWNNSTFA

inhibition [1]	inhibition [2]	Structure (SMILES)
75%	inactive	COc1ccc(-c2cc(Oc3cc(C)cc(OC)c3)cc(C)n2)cc1
25%	inactive	Cc1cc(Oc2cccc(O)c2)cc(-c2ccccc2)n1
